From paper PMC6409614, “BmTudor-sn Is a Binding Protein of Destruxin A in Silkworm Bm12 Cells” (Toxins, 2019)
Non-standard residues stand in square brackets, D forms with d. Residues, ends and D or L forms follow the SMILES beside them. dLac(3-vinyl) = C=CC[C@@H](O)C(=O)O; NMeV = CN[C@H](C(=O)O)C(C)C; NMeA = CN[C@@H](C)C(=O)O; βAla = NCCC(=O)O

What was measured:
BmTudor-sn [1] = settings: Bm12 cells; specific proteinase; earlier DARTS analysis of the authors; reference not given; cited from earlier work
From the text: Molecular docking is a reasonable, efficient, and convenient strategy to narrow down candidates among all proteins compared to other methods such as heterologous expression and kinetic analysis, which require verification one by one. However, it seems paradoxical in this study that proteins with the top docking scores were not the binding protein [24]. Actually, docking is a completely theoretical speculation, and other experiments are required to draw a conclusion. H ...

BmTudor-sn [2] = test: Cellular thermal shift assay (CETSA), BmTudor-sn; type: cell-based, Bombyx mori; settings: Bm12 cells
Procedure: (§1) The Bm12 cell line was used to conduct the CETSA and immunoblot experiments. Cells were treated with DA. For immunoblotting, cell extracts from different DA treatments, collected after incubation with RIPA lysis buffer, were digested with proteinase K and then heated in water at 90 °C for 5 min. Samples were analyzed using SDS-PAGE and transferred to PVDF membranes. The membranes were then incubated in skim milk powder, followed by incubation with primary and HRP antibodies. ECL was added to the chemiluminescence reaction. For CETSA, Bm12 cells, treated with 200 µg/mL DA, were divided into 8 aliquots, heated at 37–58 °C, and lysed by a freeze-thaw cycle. The supernatants of the lysed cells were used for the western blot analysis as described above.

Bm12 cells = test: RNAi and viability assessment under DA treatment; type: cell-based, silkworm (Bombyx mori)
Procedure: SiRNAs were prepared by synthesis in vitro. The sequence of BmTudor-sn siRNA is 5ʹ-[…]-3ʹ and 5ʹ-[…]-3ʹ. SiRNA and FuGENE transfection reagent were each diluted in serum-free medium and then mixed. The mixture was added to Bm12 cells after the DA treatment. Viability and toxicity assessment were performed following the manufacturer’s instructions.

BmTudor-sn [3] = test: Transcriptional level of BmTudor-sn; type: cell-based, Bombyx mori; settings: by DA; method not described
BmPiwi [4] = test: Transcriptional level of BmPiwi; type: cell-based, Bombyx mori; settings: by DA; method not described
BmAGO2 [5] = test: Transcriptional level of BmAGO2; type: cell-based, Bombyx mori; settings: by DA; method not described
HSP = settings: in vitro molecular interaction validation; cited from earlier work
From the text: (§2) Destruxins are cyclodepsipeptidic mycotoxins, and there are 39 analogues. […] Because of the immunosuppression activity of DA in insects, the majority of studies have focused on the mechanism of action of the effect of DA on the immune-related pathway or st ...

insects = settings: cited from earlier work
From the text: as §2

[6] = system: heat shock proteins (HSPs); settings: cultured cells (Bm12), DARTS; cited from earlier work
From the text: as §2

BmTudor-sn [7] = test: Bio-Layer Interferometry (BLI), BmTudor-sn; type: binding, Bombyx mori; settings: PBST (0.05% Tween20, 5% DMSO)
Procedure: (§3) All proteins were prepared by eukaryotic expression in the Sf9 cell line. These were tagged with His-tag and purified by nickel affinity chromatography. BLI analysis was performed on a ForteBio OctetQK System (K2, Pall Fortebio Corp, Menlo Park, CA, USA). Generally, the protein samples were coupled with a biosensor for immobilization. Serial not gradient dilutions of DA (500, 250, 125, 62.5, 31.25, 15.63, and 7.813 μM) were used for treatment. PBST buffer (0.05% Tween20, 5% DMSO) was used for the reference and dilution buffers. The working procedure was baseline for 60 s, association for 60 s, and dissociation for 60 s. Finally, the raw data were processed with Data Analysis Software (9.0, Pall Fortebio Corp, Menlo Park, CA, USA).

BmPiwi [8] = test: Cellular thermal shift assay (CETSA), BmPiwi; type: cell-based, Bombyx mori; settings: Bm12 cells, DA 200 µg/mL, 37–58 °C, freeze-thaw lysis, western blot of supernatant
Procedure: as §1

BmAGO2 [9] = test: Cellular thermal shift assay (CETSA), BmAGO2; type: cell-based, Bombyx mori; settings: Bm12 cells, DA 200 µg/mL, 37–58 °C, freeze-thaw lysis, western blot of supernatant
Procedure: as §1

BmPiwi [10] = test: Bio-Layer Interferometry (BLI), BmPiwi; type: binding, Bombyx mori; settings: recombinant protein from Sf9 cells, DA 7.813-500 μM
Procedure: as §3

BmAGO2 [11] = test: Bio-Layer Interferometry (BLI), BmAGO2; type: binding, Bombyx mori; settings: recombinant protein from Sf9 cells, DA 7.813-500 μM
Procedure: as §3

BmTudor-sn with BmAGO1 = test: Insect two-hybrid (I2H), interaction of BmTudor-sn and mutants with BmAGO1; type: cell-based, Bombyx mori; settings: Sf9 cells, luciferase; for mutants with signal different from wild type: p < 0.05, DMRT
Procedure: BmTudor-sn and mutants were cloned into the I2H vector pIE-AD, and BmAGO1 was cloned into the I2H vector pIE-DBD using the Gateway system. These vectors and the luciferase vector were co-transfected into the Sf9 cell line and treated with DA at 0.02 and 0.2 µg/mL. The luciferase activities in the cell extracts were determined using a Luciferase Reporter Assay System (Promega, Beijing, China) and Synergy™ H1 (BioTek, Winooski, VT, USA).

BmTudor-sn [12] = test: Immunoblot after proteolysis, BmTudor-sn; type: cell-based, Bombyx mori; settings: Bm12 cell extracts from different DA treatments, proteinase K, western blot
Procedure: as §1

V-ATPase = settings: silkworm hemocytes; earlier work of the authors, no reference given; cited from earlier work
From the text: (§4) DA has been previously reported to play a role in immune related pathways and in inducing the immunosuppression phenotype in insects. The majority of studies have focused on these roles, while few have addressed the mechanism of action in cells. […] Tudor-sn, a multifunctional protein, was reported to regulate do ...

[13] = cited from earlier work
From the text: as §4

BmTudor-sn [14] = biological target: T1, BmTudor-sn (Bombyx mori, UniProt D9N4J4); test: bio-layer interferometry (ForteBio OctetQK), protein immobilised on biosensor; type: binding
T1 construct: gene Tudor-SN; endogenous protein in Bm12 cells (CETSA); four staphylococcal nuclease domains and a Tudor domain
T1 sequence (D9N4J4 1-888): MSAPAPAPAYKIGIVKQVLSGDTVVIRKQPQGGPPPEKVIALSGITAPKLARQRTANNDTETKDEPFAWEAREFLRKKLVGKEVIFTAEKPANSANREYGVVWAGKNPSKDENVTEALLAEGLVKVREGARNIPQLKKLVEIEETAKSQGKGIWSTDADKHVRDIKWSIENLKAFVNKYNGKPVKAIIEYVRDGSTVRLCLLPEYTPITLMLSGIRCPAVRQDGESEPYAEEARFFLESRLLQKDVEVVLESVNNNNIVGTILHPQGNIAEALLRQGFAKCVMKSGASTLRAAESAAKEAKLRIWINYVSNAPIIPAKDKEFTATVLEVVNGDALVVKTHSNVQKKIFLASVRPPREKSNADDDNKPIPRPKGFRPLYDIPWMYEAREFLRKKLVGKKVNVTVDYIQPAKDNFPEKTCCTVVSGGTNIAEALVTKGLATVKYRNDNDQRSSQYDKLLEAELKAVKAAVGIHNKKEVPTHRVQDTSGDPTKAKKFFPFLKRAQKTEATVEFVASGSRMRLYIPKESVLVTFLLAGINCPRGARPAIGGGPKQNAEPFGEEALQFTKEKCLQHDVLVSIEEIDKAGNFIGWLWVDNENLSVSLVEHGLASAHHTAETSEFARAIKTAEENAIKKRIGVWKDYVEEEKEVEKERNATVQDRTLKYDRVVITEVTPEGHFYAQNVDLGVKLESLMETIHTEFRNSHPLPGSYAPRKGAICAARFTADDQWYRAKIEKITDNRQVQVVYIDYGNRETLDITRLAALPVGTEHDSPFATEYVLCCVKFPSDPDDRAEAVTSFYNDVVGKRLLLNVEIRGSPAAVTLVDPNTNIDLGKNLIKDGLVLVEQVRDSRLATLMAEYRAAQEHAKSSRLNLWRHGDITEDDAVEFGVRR

BmTudor-sn [15] = biological target: T1, BmTudor-sn; test: cellular thermal shift assay (CETSA), western blot, endogenous protein in Bm12 cells; type: cell-based; settings: 200 µg/mL DA; intact Bm12 cells heated at 37–58 °C
[16] = DA 0.02 or 0.2 µg/mL, by mutant site

For C=CC[C@H]1OC(=O)CCNC(=O)[C@H](C)N(C)C(=O)[C@H](C(C)C)N(C)C(=O)[C@H]([C@@H](C)CC)NC(=O)[C@@H]2CCCN2C1=O [DA, Destruxin A] (cyclo([dLac(3-vinyl)]PI[NMeV][NMeA][βAla])) [listing 1 of 2 here], the “appearance of BmTudor-sn in DARTS” value (BmTudor-sn [1]) is listed as “only appeared in the 200 µg/mL treatment with a specific proteinase and not at the lower dosage and with other proteinases”, the “thermal stability (CETSA), dose dependence” value (BmTudor-sn [2]; 200 µg/mL versus lower dose) is listed as “BmTudor-sn showed thermal stability with the 200 µg/mL treatment and not at the lower dose” and the “thermal stability (CETSA)” value (BmTudor-sn [2]; DA 200 µg/mL, 37–58 °C, freeze-thaw lysis, western blot of supernatant) is listed as “thermal stability of BmTudor-sn increased following DA binding modification”. For the same molecule, the “viability of BmTudor-sn knock down cells” value (Bm12 cells; Bm12 cells under DA treatment, * p < 0.05, t test) was “higher viability under DA treatment”, the “increase in viability with BmTudor-sn knockdown” value (Bm12 cells; Bm12 cells, BmTudor-sn siRNA, DA treatment) was “approximately 20%” and the “upregulation at the transcriptional level” value (from here on “upregulation”) (BmTudor-sn [3]) was 2-3 fold. The “upregulation” value (BmPiwi [4]) was 2-3 fold, the “upregulation” value (BmAGO2 [5]) was 2-3 fold and the “binding to an HSP” value (HSP) was “binds to an HSP in vitro”. The “insecticidal effect and anti-immunity activity” value (insects) was “strong insecticidal effect and anti-immunity activity”, the “induction of heat shock proteins” value [6] was “greatly induced heat shock proteins (HSPs) in cultured cells” and the Kd (BmTudor-sn [7]; BLI, ForteBio OctetQK, His-tagged recombinant protein from Sf9 cells immobilized, association 60 s, dissociation 60 s, DA 7.813-500 μM, read-out: affinity constant KD) was 587 µM. The “interaction with DA” value (BmTudor-sn [7]; BLI, DA 125, 250 and 500 µM) was “interacts with BmTudor-sn at concentrations of 125 µm, 250 µm, and 500 µm”, the “BLI Response” value (BmTudor-sn [7]; DA 7.81 uM) was -0.0024 and the “BLI Response” value (BmTudor-sn [7]; DA 15.6 uM) was -0.0035. For the same molecule, the “BLI Response” value (BmTudor-sn [7]; DA 31.3 uM) was -0.0012, the “BLI Response” value (BmTudor-sn [7]; DA 62.5 uM) was 0.0001 and the “BLI Response” value (BmTudor-sn [7]; DA 125 uM) was 0.0032. The “BLI Response” value (BmTudor-sn [7]; DA 250 uM) was 0.0086, the “BLI Response” value (BmTudor-sn [7]; DA 500 uM) was 0.0071 and the “thermal stability shift (CETSA)” value (BmPiwi [8]) was “no thermal stability shift in BmPiwi and BmAGO2”. For the same molecule, the “thermal stability shift (CETSA)” value (BmAGO2 [9]) was “no thermal stability shift in BmPiwi and BmAGO2”, the “interaction with DA” value (BmPiwi [10]) was “not BmPiwi or BmAGO2” and the “interaction with DA” value (BmAGO2 [11]) was “not BmPiwi or BmAGO2”. For the same molecule, the “mutants with signal different from wild type” value (BmTudor-sn with BmAGO1; DA 0.02 µg/mL) was 2 mutants, Ser707Ala and leu704Ala, the “mutants with signal different from wild type” value (BmTudor-sn with BmAGO1; DA 0.2 µg/mL) was 3 mutants, Ser701Ala, Leu704Ala, and Tyr708Ala and the “domain of differing mutants” value (BmTudor-sn with BmAGO1; DA 0.02 and 0.2 µg/mL) was “in the Tudor domain (Ser707, Leu704, Ser701, Tyr708) rather than the SN3 (Lys492) and SN4 (Lys582) domains”. The “interaction site at both concentrations” value (BmTudor-sn with BmAGO1; DA 0.02 and 0.2 µg/mL) was “interacts with BmTudor-sn at both concentrations at Leu704”, the “effect on BmTudor-sn/BmAGO1 pair interaction, impeded” value (BmTudor-sn with BmAGO1; [16]) was “impeded the protein pair interaction at Ser707 and Tyr708” and the “effect on BmTudor-sn/BmAGO1 pair interaction, promoted” value (BmTudor-sn with BmAGO1; [16]) was “promoted it at Leu704 and Ser701”. For the same molecule, the “protein stability under proteolysis (immunoblot)” value (BmTudor-sn [12]) was “stable with DA treatment in a dosage-dependent manner under proteolysis”.

For Destruxin B [DB], the “sensitivity to V-ATPase compared with DA” value (V-ATPase) is listed as “more sensitive to V-ATPase than DA in silkworm hemocytes” and the anti-cancer activity [13] is listed as “clear anti-cancer activity”.

With C=CC[C@H]1OC(=O)CCNC(=O)[C@H](C)N(C)C(=O)[C@H](C(C)C)N(C)C(=O)[C@H]([C@@H](C)CC)NC(=O)[C@@H]2CCCN2C1=O [DA, Destruxin A] (cyclo([dLac(3-vinyl)]PI[NMeV][NMeA][βAla])) [listing 2 of 2 here] the Kd (BmTudor-sn [14]) was 587 µM and the thermal stability shift (BmTudor-sn [15]) was “the thermal stability of BmTudor-sn increased following DA binding modification”.
